Data: PubChem BioAssay (NCI)
“And” between values parts separate entries of the source, which are not always exact repeats. Equal values may be shown once.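 Each compound was tested at five concentrations against cells in 96-well plates for 48 hours. GI50 marks 50% less growth. TGI denotes the concentration required for complete inhibition of growth.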

Key:
Experiment in all cases: growth of human tumour cells (NCI), 48 h
HCC-2998 colon = tested on: HCC-2998 colon
HOP-92 NSCLC = tested on: HOP-92 NSCLC
RXF 393 renal = tested on: RXF 393 renal
SK-MEL-28 melanoma = tested on: SK-MEL-28 melanoma
SNB-19 CNS = tested on: SNB-19 CNS
SW-620 colon = tested on: SW-620 colon
SK-OV-3 ovarian = tested on: SK-OV-3 ovarian
SR leukemia = tested on: SR leukemia
BT-549 breast = tested on: BT-549 breast
MDA-MB-435 = tested on: MDA-MB-435

Row | Structure (SMILES) | TGI (HCC-2998 colon) | TGI (HOP-92 NSCLC) [µM] | TGI (RXF 393 renal) [µM] | TGI (SK-MEL-28 melanoma) [µM] | TGI (SNB-19 CNS) [µM] | TGI (SW-620 colon) [µM] | TGI (SK-OV-3 ovarian) | TGI (SR leukemia) [µM] | GI50 (BT-549 breast) [µM] | GI50 (HCC-2998 colon) [µM] | GI50 (HOP-92 NSCLC) [µM] | GI50 (SNB-19 CNS) [µM] | GI50 (SR leukemia) [µM] | GI50 (SW-620 colon) [µM] | GI50 (RXF 393 renal) [µM] | GI50 (SK-MEL-28 melanoma) [µM] | GI50 (SK-OV-3 ovarian) [µM] | TGI (BT-549 breast) [µM] | GI50 (MDA-MB-435) [µM] | TGI (MDA-MB-435) [µM]
1 | COc1ccc(C(=O)C(C(=O)CCC(=O)Nc2ccc(Cl)c(Cl)c2)c2ccc(OC)cc2)cc1 (centres undefined) | > 100 µM | > 100 | > 100 | > 100 | > 100 | > 100 | – | – | – | – | – | – | – | – | – | – | – | – | – | –
2 | O=S1OC(c2ccccc2)(c2ccccc2)C(c2ccccc2)(c2ccccc2)O1 | > 100 µM | > 100 | > 100 | > 100 | > 100 | > 100 | > 100 µM | > 100 | – | – | – | – | – | – | – | – | – | – | – | –
3 | CC(=O)C1(O)CC2(c3ccccc3)C(=O)C1(c1ccccc1)C(c1ccccc1)=C2c1ccccc1 (centres undefined) | – | > 100 | > 100 | – | > 100 | > 100 | > 100 µM | > 100 | – | – | – | – | – | – | – | – | – | – | – | –
4 | COc1ccc(-c2csc3c2-n2cccc2C3=O)cc1 | 2.56 µM and 5.8 µM | > 100 | – | > 100 | > 100 | > 100 | 5.98 µM and 25.3 µM | – | 0.0492 | 0.232 | 0.0919 | 0.0394 | 0.00314 | 0.0056 | – | – | – | – | – | –
5 | N#CC(C(=O)CCCC(=O)Nc1ccccc1[N+](=O)[O-])c1c(Cl)cccc1Cl (centres undefined) | > 100 µM | > 100 | > 100 | > 100 | > 100 | > 100 | > 100 µM | > 100 | – | – | – | – | – | – | – | – | – | – | – | –
6 | COc1ccc(C2COc3c(ccc(OC)c3OC)C2=O)cc1OC (centres undefined) | > 100 µM | > 100 | > 100 | > 100 | > 100 | > 100 | > 100 µM | > 100 | – | – | – | – | – | – | – | – | – | – | – | –
7 | O=C(CCc1nnc2s/c(=C\c3ccc([N+](=O)[O-])cc3)c(=O)n12)Nc1ccc(Cl)c(Cl)c1 | 53.9 µM | > 100 | 34.6 | 63.8 | > 100 | 58.4 | > 100 µM | – | – | – | – | – | – | – | – | – | – | – | – | –
8 | O=C([CH-]C(=O)c1ccccc1)c1ccccc1.O=C([CH-]C(=O)c1ccccc1)c1ccccc1.O=C([CH-]C(=O)c1ccccc1)c1ccccc1.[Ga+3] | – | > 100 | > 100 | > 100 | > 100 | > 100 | > 100 µM | > 100 | – | – | > 100 | > 100 | 9.53 | 65.1 | 43.7 | > 100 | 63.5 | – | – | –
9 | COc1cccc2c1nc(C(F)F)n2-c1nc(-c2ccc(NS(=O)(=O)CCN(C)C)cc2)nc(N2CCOCC2)n1 | 17.4 µM | – | 0.58 | 2.5 | > 100 | 6.78 | 0.214 µM | 3.87 | 0.314 | 0.0974 | – | 1.28 | 0.319 | 0.341 | 0.105 | 0.0774 | 0.0396 | 16 | 0.132 | 7.2
10 | COC(=O)N[C@H]1CCc2cc(OC)c(OC)c(OC)c2-c2ccc(SC)c(=O)cc21 | > 100 µM | > 64.8 | > 100 | > 100 | > 100 | > 100 | > 100 µM | > 100 | < 0.01 | < 0.01 | 0.0631 | < 0.01 | < 0.01 | < 0.01 | < 0.01 | > 100 | < 0.01 | 11 | – | –
11 | COc1ccc2c(c1)[C@@H](NC(C)=O)CCc1cc(OC)c(OC)c(OC)c1-2 | 13 µM | > 9.04 | > 8.58 | > 100 | > 10.5 | > 100 | 4.1 µM | > 90.2 | – | – | – | – | – | – | – | – | – | – | – | 0.0244
12 | NC(N)NCCCc1cn2c(n1)C1CCCN1C(=O)C2Cc1ccccc1 (centres undefined) | > 100 µM | – | > 100 | > 100 | > 100 | > 100 | > 100 µM | – | – | – | – | – | – | – | – | – | – | – | – | –
13 | Cn1cc(C2NC(=O)c3ccccc3N2)c2ccccc21 (centres undefined) | 7.45 µM | > 100 | 0.704 | > 100 | > 91 | > 100 | 40.3 µM | – | – | – | – | – | – | – | – | – | – | > 100 | – | > 100
14 | O=C(CCc1n[nH]c(=S)o1)Nc1cc(Cl)ccc1Cl | > 100 µM | > 100 | – | > 100 | > 100 | 32.1 | > 100 µM | – | – | – | – | – | – | – | – | – | – | – | – | –
15 | O=C1C2C3CC4C5C3C1C5C1(SCCS1)C42 (centres undefined) | > 100 µM | – | > 100 | > 100 | > 100 | > 100 | > 100 µM | > 100 | – | – | – | – | – | – | – | – | – | – | – | –
16 | O=c1nc2n(-c3cccc(Cl)c3)c3ccc([N+](=O)[O-])cc3cc-2c(=O)[nH]1 | 11 µM | 24.7 | > 25 | > 25 | > 25 | > 25 | > 25 µM | – | 4.2 | 4.92 | 7.75 | 7.5 | – | 2.3 | 10.1 | 8.01 | 15 | 11.8 | 4.06 | 8.09
17 | Cc1ccc(S(=O)c2ccccc2[N+](=O)[O-])cc1 (centres undefined) | > 100 µM | > 100 | > 100 | > 100 | > 100 | > 100 | > 100 µM | > 100 | – | – | – | – | – | – | – | – | – | – | – | –
18 | CC(C)(CN1CCCCC1)C(=O)/C=C/c1ccccc1 | 27.9 µM | – | 24.7 | 33 | 34.6 | 27.8 | 57.3 µM | – | – | – | – | – | – | – | – | – | – | – | – | –
19 | CC(=O)/C(=C\c1ccc(Cl)cc1)c1ccccc1 | > 68.9 µM | > 26.2 | – | > 100 | > 100 | > 64.6 | > 100 µM | > 49.7 | 0.107 | 0.328 | 0.12 | 0.344 | 0.0415 | 0.0445 | 0.0579 | 2.05 | 0.0942 | 0.946 | – | –
20 | O=c1[nH]c2ccccc2n1C1CCNCC1 | > 100 µM | – | > 100 | > 100 | > 100 | > 100 | > 100 µM | > 100 | > 100 | > 100 | – | > 100 | > 100 | > 100 | > 100 | > 100 | > 100 | > 100 | > 100 | > 100
